# From patent US4985352A (The Trustees of Columbia University in the City of New York, priority 1989, dated 1991)
# Test system: NIH3T3 cells
# Test: Flow cytometry of intracellular Ca2+ in control untransfected NIH3T3 cells
# Type: cell-based, mouse
# Details: untransfected NIH3T3 cells loaded with indo-1
smiles,measurement,value
"NCCc1c[nH]c2ccc(O)cc12 [serotonin, 5-hydroxytryptamine]",Intracellular Ca2+ response to serotonin,did not respond
